In patent US20020045780A1, “Biologically active spermidine analogues, pharmaceutical compositions and methods of treatment” (priority 1997, published 2002):
Where “and” joins values, the source holds several entries; their conditions need not be identical. Equal entries are not always repeated. Entries after “also recorded” stand apart in the source; their conditions may differ. Structures can show the parent of a compound that is named as a salt. Where two headings read alike, the source gives them in different places.

Legend:
[1] = system: S-adenosylmethionine decarboxylase (AdoMetDC); settings: L1210, 1 μM at 6 hours; cited from earlier work
[2] = system: spermidine/spermine acetyltransferase (SSAT); settings: L1210, 2 μM at 48 hours (tetraamine analogues); cited from earlier work
[3] = system: ornithine decarboxylase (ODC); settings: L1210, 1 μM at 4 hours; cited from earlier work
L1210 cells [4] = settings: cited from earlier work
L1210 cells [5] = test: Metabolic transformation of polyamine analogues by L1210 cells; format: in vitro ADME, murine; settings: for Parent drug as % of total drug in the cell / Parent drug in L1210 cells / N-Monodealkylation (result in words): 48 hours; for N-Monodealkylation (result in words): Trihydrochloride
Experimental: The cells were washed twice with cold RPMI-1640, and the pellet was treated with 0.6 N HClO4 (1 ml/10^7 cells). Polyamine contents of the perchloric acid extracts were quantitated by HPLC of the DANSYL derivatives [Bergeron et al, J. Med. Chem., Vol. 37, supra].

[6] = target: polyamine transport apparatus; settings: inhibition of spermidine transport, L1210; read-out: Ki, corresponding tetraamine (in parentheses); cited from earlier work
L1210 cells [7] = settings: 48 hours, cited from earlier work; for Put, corresponding tetraamine (in parentheses) / Spd, corresponding tetraamine (in parentheses) / Spm, corresponding tetraamine (in parentheses): % of untreated control; for Analogue, corresponding tetraamine (in parentheses): intracellular amount
[8] = system: polyamine transport apparatus; test: Competitive uptake determination: inhibition of [3H]spermidine transport into L1210 cells; format: cell-based, murine; settings: analogue inhibition of spermidine transport
How it was run: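 Analogues competed with [3H]spermidine for uptake into L1210 cells. Values are Ki, derived from Lineweaver–Burk analysis as competitive inhibition with respect to spermidine.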

L1210 cells [9] = test: L1210 growth inhibition, IC50 determination; format: cell-based, murine
Experimental: Murine L1210 leukemia cells (ATCC CCL 219) were maintained in logarithmic growth in RPMI-1640 medium containing 10% fetal calf serum or a semi-synthetic equivalent, NuSerum, 2% HEPES-MOPS buffer and 1 mM aminoguanidine.

[10] = Acute toxicity in mice (single i.p. dose); format: in vivo; settings: female, CD-1, mouse, in vivo, ip, mice, single dose i.p., scored two hours after dose, read-out: Acute LD50
Experimental: In the current study, the acute toxicity of six analogues and the chronic toxicity of two triamines were measured (Table 7). The value of all polyamine LD50s are shown in both mg/kg and mmol/kg for comparison. […] The animals were scored two hours after administration of the drug. It is clear that the acute LD50s for triamine analogues are approximately twice the acute LD50s for the corresponding tetraamine analogues.
(§1) Acute and chronic toxicities were assessed in 10-12 week old CD-1 female mice from Harlan Sprague-Dawley. For acute toxicities, the polyamine analogues were administered in a single i.p. injection to groups of five or six animals at each dose. The animals were scored two hours after administration of the dose. All survivors were further observed for 10 days to assess late onset of toxicity from the single acute dose. In the chronic toxicity regimen, mice were administered polyamine analogue in three i.p. doses per day (t.i.d.) for six days, for a total of eighteen doses per animal. Appetite, weight and overall appearance were monitored daily. […] At least three test groups of 5-6 animals each, representing three different dose levels, were evaluated for each analogue tested. These dose levels were chosen so that at least two groups presented with lethalities, one with a high fraction of lethalities (>0.50, but <1.00).

mice = format: in vivo; settings: for Chronic toxicity in mice relative to the related tetraamine: ratio of chronic LD50 values, Table 7
Experimental: In the chronic toxicity regimen, mice were administered the polyamine analogue in three doses per day (t.i.d.) for six days for a total of eighteen injections per animal and observed for 10 days after the final dose for lethalities. […] A similar difference is also observed in the chronic toxicity of DE(3,4).
as §1

[11] = system: ornithine decarboxylase (ODC); test: ODC activity in treated L1210 cells; format: cell-based, murine; settings: L1210, 1 μM at 4 hours
How it was run: (§2)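 L1210 cells treated with triamines; ODC activity measured at 4 h and AdoMetDC at 6 h as ^14CO2 released from [^14C]-carboxyl-labeled L-ornithine (ODC) or S-adenosyl-L-methionine (AdoMetDC). Untreated cells served as controls and DEHSPM-treated cells as positive controls.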

L1210 cells [12] = test: Polyamine pool analysis in L1210 cells; format: cell-based, murine; settings: for activity at 100 µM / activity at 500 µM / activity at 15 µM / activity at 75 µM / activity at 3 µM: Mus musculus, % of untreated control; for activity at 100 µM / activity at 500 µM: L1210, 48 h; for Analogue: intracellular amount; for Analogue / activity at 15 µM / activity at 75 µM / activity at 3 µM: 48 hours; for activity at 15 µM / activity at 75 µM / activity at 3 µM: L1210
How it was run: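 Cells were exposed to each analogue for 48 h at two concentrations. Washed pellets were extracted with 0.6 N HClO4 (1 ml/10^7 cells), and polyamines were quantified by HPLC of dansyl derivatives.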

[13] = system: S-adenosylmethionine decarboxylase (AdoMetDC); test: AdoMetDC activity in treated L1210 cells; format: cell-based, murine; settings: L1210, 1 μM at 6 hours
How it was run: as §2

[14] = system: spermidine/spermine acetyltransferase (SSAT); test: SSAT activity in treated L1210 cells; format: cell-based, murine; settings: L1210, 10 μM at 48 hours (triamine analogues)
Description: Spermidine/spermine N^1-acetyltransferase activity was based on quantitation of [^14C]-N^1-acetylspermidine formed by acetylation of SPD with [^14C] acetyl coenzyme A according to the method of Libby et al [Biochem. Pharmacol., Vol. 38, supra]. Cells treated with DENSPM were positive controls.

[15] = L1210, 48 hour exposure, read-out: IC50 48 hour, corresponding tetraamine (in parentheses)
[16] = L1210, 96 hour exposure, read-out: IC50 96 hour, corresponding tetraamine (in parentheses)
[17] = Mus musculus, L1210, 48 h, L1210, 48 hour exposure, read-out: IC50 48 hour
[18] = Mus musculus, L1210, 96 h, L1210, 96 hour exposure, read-out: IC50 96 hour
[19] = mice, i.p. t.i.d. × 6 days, hydrochloride salts

Row | SMILES | AdoMetDC activity, corresponding tetraamine (in parentheses) [1] | SSAT activity, corresponding tetraamine (in parentheses) [2] | ODC activity, corresponding tetraamine (in parentheses) [3] | IC50 (L1210 cells [4]; [15]) | IC50 (L1210 cells [4]; [16]) | Ki [6] | Ki [8] | IC50 (L1210 cells [9]; [17]) | IC50 (L1210 cells [9]; [18]) | LD50 at 2 h ([10]; hydrochloride salts) | LD50 at 2 h [10] | Chronic LD50 (triamines) (mice; [19]) | Chronic LD50 (triamines) (mice; mouse, in vivo, ip) | Parent drug as % of total drug in the cell (L1210 cells [5]; 100 μM analogue) | Parent drug in L1210 cells (L1210 cells [5]; 100 μM analogue) | ODC activity, percent of untreated control [11] | AdoMetDC activity, percent of untreated control [13] | SSAT activity, percent of untreated control [14] | activity at 15 µM (L1210 cells [12]; 15 μM, read-out: Put) | activity at 15 µM (L1210 cells [12]; 15 μM, read-out: Spd) | further results
1 | CNCCCCNCCCCNCCCCNC [DMHSPM] | 45% of untreated control | 140% of untreated control | 4% of untreated control | > 100000 nM | 320 nM | 970 nM |  |  |  |  |  |  |  |  |  |  |  |  |  |  | N-dealkylation (result in words) (L1210 cells [5]; L1210 cells, data not shown, concentration not given): no evidence of N-dealkylation; Put, corresponding tetraamine (in parentheses) (L1210 cells [7]; 100 μM): (0) %; Spd, corresponding tetraamine (in parentheses) (L1210 cells [7]; 100 μM): (0) %; Spm, corresponding tetraamine (in parentheses) (L1210 cells [7]; 100 μM): (30) %; Put, corresponding tetraamine (in parentheses) (L1210 cells [7]; 500 μM): (0) %; Spd, corresponding tetraamine (in parentheses) (L1210 cells [7]; 500 μM): (0) %; Spm, corresponding tetraamine (in parentheses) (L1210 cells [7]; 500 μM): (27) %; Analogue, corresponding tetraamine (in parentheses) (L1210 cells [7]; 100 μM): (1.49) nmol/10^6 cells; Analogue, corresponding tetraamine (in parentheses) (L1210 cells [7]; 500 μM): (1.03) nmol/10^6 cells
2 | CCNCCCCNCCCNCC [DESPD, N^1,N^8-Diethylspermidine Trihydrochloride] |  |  |  |  |  |  | 19300 nM | ~100000 nM | 600 to 800 nM | > 650 mg/kg | > 3220 µmol/kg | 426 mg/kg-day | 1.37 mmol/kg/day | 96.3% | 4041 pmols/10^6 | 30% of untreated control | 68% of untreated control | 1380% of untreated control |  |  | Animals died on day 6 (mice; female, CD-1, mouse, in vivo, 15 mg/kg, 3 days): 4/5; Animals died on day 7 (mice; female, CD-1, mouse, in vivo, 15 mg/kg, 7 day): 5/5; Chronic toxicity in mice relative to the related tetraamine (mice): about five times less toxic than DE(3,4,3); activity at 100 µM (L1210 cells [12]; 100 μM, read-out: Put): 0%; activity at 100 µM (L1210 cells [12]; 100 μM, read-out: Spd): 5%; activity at 100 µM (L1210 cells [12]; 100 μM, read-out: Spm): 74%; activity at 500 µM (L1210 cells [12]; 500 μM, read-out: Put): 0%; activity at 500 µM (L1210 cells [12]; 500 μM, read-out: Spd): 0%; activity at 500 µM (L1210 cells [12]; 500 μM, read-out: Spm): 55%; Analogue (L1210 cells [12]; 100 μM): 4.61 nmol/10^6 cells; Analogue (L1210 cells [12]; 500 μM): 4.20 nmol/10^6 cells
3 | CCNCCCCCNCCCCCNCC [DE(5,5), 3,9,15-Triazaheptadecane Trihydrochloride] |  |  |  |  |  |  | 174000 nM | 10000 to 12000 nM | 650 to 700 nM | 500 mg/kg | 1420 µmol/kg |  |  |  |  | 100% of untreated control | 109% of untreated control | 90% of untreated control | 0% | 55% | Parent drug as % of total drug in the cell (L1210 cells [5]; 75 μM analogue): 100%; Parent drug in L1210 cells (L1210 cells [5]; 75 μM analogue): 1585 pmols/10^6; N-Monodealkylation (result in words) (L1210 cells [5]; 75 μM analogue): do not show significant N-deethylation; N-Monodealkylation (result in words) (L1210 cells [5]; 75 μM analogue, listed as DE-[6,6]): no N-deethylation; activity at 15 µM (L1210 cells [12]; 15 μM, read-out: Spm): 97%; activity at 75 µM (L1210 cells [12]; 75 μM, read-out: Put): 0%; activity at 75 µM (L1210 cells [12]; 75 μM, read-out: Spd): 23%; activity at 75 µM (L1210 cells [12]; 75 μM, read-out: Spm): 73%; Analogue (L1210 cells [12]; 15 μM): 1.09 nmol/10^6 cells; Analogue (L1210 cells [12]; 75 μM): 1.59 nmol/10^6 cells
4 | CCNCCCCCNCCCCNCC [DE(4,5), 3,8,14-Triazahexadecane Trihydrochloride] |  |  |  |  |  |  | 64000 nM | 2000 to 6000 nM | 190 to 200 nM | 555 mg/kg | 1640 µmol/kg | 375 mg/kg-day | 1.11 mmol/kg/day | 100% | 4215 pmols/10^6 | 100% of untreated control | 70% of untreated control |  | 0% | 18% | IC50 (L1210 cells [9]; L1210, 48 hour exposure, Trihydrochloride, read-out: IC50 48 hour): 3000 to 6000 nM; Chronic toxicity in mice relative to the related tetraamine (mice; Trihydrochloride): about eight-fold less toxic than the DE(4,5,4); also recorded: greater than ten-fold less toxic than DE(5,4,5); N-Monodealkylation (result in words) (L1210 cells [5]; 100 μM analogue): do not show significant N-deethylation; also recorded: no N-deethylation; activity at 3 µM (L1210 cells [12]; 3 μM, read-out: Put): 0%; activity at 3 µM (L1210 cells [12]; 3 μM, read-out: Spd): 47%; activity at 3 µM (L1210 cells [12]; 3 μM, read-out: Spm): 99%; activity at 15 µM (L1210 cells [12]; 15 μM, read-out: Spm): 98%; Analogue (L1210 cells [12]; 3 μM): 1.20 nmol/10^6 cells; Analogue (L1210 cells [12]; 15 μM): 3.40 nmol/10^6 cells; SSAT activity, percent of untreated control ([14]; Trihydrochloride): 120% of untreated control and 120 (120) percent of untreated control
5 | CCCNCCCNCCCCNCCCNCCC [DPSPM] | 72% of untreated control | 500% of untreated control | 52% of untreated control | 3000 nM | 200 nM | 2300 nM |  |  |  |  |  |  |  |  |  |  |  |  |  |  | Parent drug as % of total drug in the cell (L1210 cells [5]; 15 μM analogue): 79.0%; Parent drug in L1210 cells (L1210 cells [5]; 15 μM analogue): 1568 pmols/10^6; Put, corresponding tetraamine (in parentheses) (L1210 cells [7]; 15 μM): (0) %; Analogue, corresponding tetraamine (in parentheses) (L1210 cells [7]; 3 μM): (1.12) nmol/10^6 cells; Analogue, corresponding tetraamine (in parentheses) (L1210 cells [7]; 15 μM): (1.09) nmol/10^6 cells
